{"source": "patent US20250002467A1", "about": "“DESIGN, SYNTHESIS AND MECHANISMS OF ANTICANCER ACTIVITY OF NEW ACETYLATED 5-AMINOSALICYLATE-THIAZOLINONE HYBRID DERIVATIVES” (University of Sharjah, priority 2023, published 2025)", "key": {"A549": {"test_system": "A549", "assay": "SRB cytotoxicity assay, A549", "format": "cell-based", "description": "(§1) Eight different cancer cell lines were acquired from the Radiobiology and Experimental Radio Oncology lab, University Medical Center, Hamburg University, Hamburg, Germany. MCF7, MDA-MB-231 (breast cancer), and A549 (lung cancer) cells were maintained in RPMI medium while HCT116 (colon cancer), HepG2 (liver cancer), U87, U373 (glioblastoma), and HeLa (cervical cancer) were maintained in DMEM supplemented with 10% FBS and 1% penicillin/streptomycin (Sigma Aldrich, Missouri, USA). Normal human fibroblast (F180) cells were maintained in DMEM supplemented with 15% FBS. Normal human mammary epithelial cell line (HME1) were maintained in DMEM/F-12 medium supplemented with 10% FBS. All incubations were done at 37° C. in a humidified atmosphere of 5% CO2. All cell lines were authenticated by short tandem repeat (STR) profiling. The CDK4 knockout cells (provided by Dr. Samrein Ahmed, University of Sharjah, United Arab Emirates) were generated by CRISPR-CAS9 technology and were maintained in DMEM supplemented with 10% FBS.\n(§2) The cytotoxic effects of HH32 and HH33 compounds were evaluated at various concentrations ranging from 0.0001 to 100 μM by sulphrhodamine-B (SRB) assay as described previously. The anti-proliferative activity was expressed as growth inhibitory concentration (IC50) values, which were calculated by the sigmoidal dose-response curve fitting method using Graph pad prism 6 software (GraphPad Software, San Diego, CA, USA)."}, "MDA-MB-231": {"test_system": "MDA-MB-231", "assay": "SRB cytotoxicity assay, MDA-MB-231", "format": "cell-based", "description": "as §1, §2"}, "HME1": {"test_system": "HME1", "assay": "SRB cytotoxicity assay, normal mammary epithelial HME1", "format": "cell-based, human", "settings": "mean ± SEM", "description": "as §1, with “The CDK4 knockout cells (provided by Dr. Samrein Ahmed, University of Sharjah, United Arab Emirates) were generated by CRISPR-CAS9 technology and were maintained in DMEM supplemented with 10% FBS.” left out\nas §2"}, "U373": {"test_system": "U373", "assay": "SRB cytotoxicity assay, U373", "format": "cell-based", "description": "as §1, §2"}, "F-180": {"test_system": "F-180", "assay": "SRB cytotoxicity assay, normal fibroblast F-180", "format": "cell-based, human", "settings": "F-180 normal fibroblast, mean ± SEM", "description": "as §1, §2"}, "U87": {"test_system": "U87", "assay": "SRB cytotoxicity assay, U87", "format": "cell-based", "description": "as §1, §2"}, "HeLa": {"test_system": "HeLa", "assay": "SRB cytotoxicity assay, HeLa", "format": "cell-based", "description": "as §1, §2"}, "MCF7": {"test_system": "MCF7", "assay": "SRB cytotoxicity assay, MCF7", "format": "cell-based", "description": "as §1, §2"}, "HepG2": {"test_system": "HepG2", "assay": "SRB cytotoxicity assay, HepG2", "format": "cell-based", "description": "as §1, §2"}, "HCT-116": {"test_system": "HCT-116", "assay": "SRB cytotoxicity assay, HCT-116", "format": "cell-based", "description": "as §1, §2"}}, "data": [{"smiles": "COc1cccc2c1C(=O)c1c(O)c3c(c(O)c1C2=O)C[C@@](O)(C(=O)CO)C[C@@H]3O[C@H]1C[C@H](N)[C@H](O)[C@H](C)O1", "note": "[DOX, Doxorubicin, reference compound]", "values": [{"measurement": "Selectivity index", "setting": "A549; F180 versus A549", "result": 0.47}, {"measurement": "Selectivity index", "setting": "A549; HME1 versus A549", "result": 1.81}, {"measurement": "IC50", "setting": "A549; Homo sapiens, A549, SRB, mean ± SEM", "result": "620 ± 590", "unit": "nM"}, {"measurement": "Selectivity index", "setting": "MDA-MB-231; F180 versus MDA-MB-231", "result": 0.64}, {"measurement": "Selectivity index", "setting": "MDA-MB-231; HME1 versus MDA-MB-231", "result": 2.5}, {"measurement": "IC50", "setting": "MDA-MB-231; Homo sapiens, MDA-MB-231, SRB, mean ± SEM", "result": "450 ± 110", "unit": "nM"}, {"measurement": "IC50", "setting": "HME1; HME1 normal epithelial", "result": "1120 ± 190", "unit": "nM"}, {"measurement": "IC50", "setting": "HME1; Homo sapiens, HME1, HME1 normal epithelial", "result": "< 1200", "unit": "nM"}, {"measurement": "Selectivity index", "setting": "U373; F180 versus U373", "result": 0.33}, {"measurement": "Selectivity index", "setting": "U373; HME1 versus U373", "result": 1.3}, {"measurement": "IC50", "setting": "U373; Homo sapiens, U373 MG, U373, SRB, mean ± SEM", "result": "880 ± 90", "unit": "nM"}, {"measurement": "IC50", "setting": "F-180", "result": "290 ± 370", "unit": "nM"}, {"measurement": "IC50", "setting": "F-180; listed as doxorubicin", "result": "< 1200", "unit": "nM"}, {"measurement": "Selectivity index", "setting": "U87; F180 versus U87", "result": 2.9}, {"measurement": "Selectivity index", "setting": "U87; HME1 versus U87", "result": 11.2}, {"measurement": "IC50", "setting": "U87; Homo sapiens, U-87 MG, U87, SRB, mean ± SEM", "result": "100 ± 90", "unit": "nM"}, {"measurement": "Selectivity index", "setting": "HeLa; F180 versus HeLa", "result": 0.6}, {"measurement": "Selectivity index", "setting": "HeLa; HME1 versus HeLa", "result": 2.4}, {"measurement": "IC50", "setting": "HeLa; Homo sapiens, HeLa, SRB, mean ± SEM", "result": "460 ± 460", "unit": "nM"}, {"measurement": "Selectivity index", "setting": "MCF7; F180 versus MCF7", "result": 4.8}, {"measurement": "Selectivity index", "setting": "MCF7; HME1 versus MCF7", "result": 18.7}, {"measurement": "IC50", "setting": "MCF7; Homo sapiens, MCF7, SRB, mean ± SEM", "result": 60, "unit": "nM"}, {"measurement": "Selectivity index", "setting": "HepG2; F180 versus HepG2", "result": 0.78}, {"measurement": "Selectivity index", "setting": "HepG2; HME1 versus HepG2", "result": 3.02}, {"measurement": "IC50", "setting": "HepG2; Homo sapiens, HepG2, SRB, mean ± SEM", "result": "370 ± 120", "unit": "nM"}, {"measurement": "Selectivity index", "setting": "HCT-116; F180 versus HCT116", "result": 2.6}, {"measurement": "Selectivity index", "setting": "HCT-116; HME1 versus HCT116", "result": 10.2}, {"measurement": "IC50", "setting": "HCT-116; Homo sapiens, HCT-116, SRB, mean ± SEM", "result": 110, "unit": "nM"}]}]}
